pIC50: −log10 of the molar value.
Target: LRRK2, WT (GST-tagged truncated LRRK2) (Homo sapiens, UniProt Q5S007)
Experiment: LRRK2 kinase assay (LanthaScreen), wild type
Assay type: biochemical
Conditions: LanthaScreen, LRRKtide substrate
Method: LRRK2 kinase activity was measured using Lantha Screen technology from Invitrogen. GST-tagged truncated LRRK2 from Invitrogen (Cat #PV4874) was incubated with a fluorescein-labeled peptide substrate based upon ezrin/radixin/moesin (ERM), also known as LRRKtide (Invitrogen cat #PR8976A), in the presence of a dose response of compound. Upon completion, the assay was stopped and detected with a terbium labeled anti-phospho-ERM antibody (Invitrogen, cat #PR8975A). […] Using Echo acoustic dispensing, 60 nL of compound was transferred to a low volume Corning 384-well assay plate. 3 μL of a working solution of substrate (200 nM LRRKtide, 2 mM ATP) prepared in assay buffer (50 mM HEPES, pH 7.5, 3 mM MgCl2, with 2 mM DTT and 0.01% Brij35 added fresh) was added to the 60 nL compound assay plate. The kinase reaction was started with 3 μL of a working solution of LRRK2 enzyme at a concentration of 4 μg/m L. The final reaction concentrations were 100 nM LRRKtide, 1 mM ATP, 2 μg/mL LRRK2 enzyme and a compound dose response with a top dose of 3 μM. The reaction was allowed to progress at room temperature for 30 minutes and then stopped with the addition of 6 μL of detection buffer (20 mM Tris pH 7.6, 0.01% NP-40, 6 mM EDTA with 2 nM terbium labeled antiphospho-ERM). […] All final concentrations of substrate ATP and enzyme were the same.

Row | SMILES | pIC50 (1 mM ATP) | pIC50 (wild type LRRK2)
1 | Cc1nc2cnc3ccc(Cl)cc3c2n1[C@H]1CCO[C@@H](CC#N)C1 (relative stereo) [enantiomer of Example 31, [cis-4-(8-chloro-2-methyl-1H-imidazo[4,5-c]quinolin-1-yl)tetrahydro-2H-pyran-2-yl]acetonitrile] | 5.78 | 
2 | Cc1cc(Cc2nc3cnc4ccc(Cl)cc4c3n2[C@H]2CCO[C@@H](C(F)F)C2)no1 (relative stereo) [enantiomer of Example 59, 8-chloro-1-[cis-2-(difluoromethyl)tetrahydro-2H-pyran-4-yl]-2-[(5-methyl-1,2-oxazol-3-yl)methyl]-1H-imidazo[4,5-c]quinoline] | 6.20 | 
3 | Cc1cnn(Cc2nc3cnc4ccc(C#N)cc4c3n2C2CN(C)CC2(F)F)n1 (single isomer, unassigned) [Example 3, 1-(4,4-Difluoro-1-methylpyrrolidin-3-yl)-2-[(4-methyl-2H-1,2,3-triazol-2-yl)methyl]-1H-imidazo[4,5-c]quinoline-8-carbonitrile] |  | 7.50
4 | CCc1nc2cnc3ccc(Cl)cc3c2n1[C@H]1CCO[C@@H](CC#N)C1 [Example 2, [(2R,4S)-4-(8-Chloro-2-ethyl-1H-imidazo[4,5-c]quinolin-1-yl)tetrahydro-2H-pyran-2-yl]acetonitrile] |  | 5.82
5 | N#CCC1CC(n2c(C3CCC3)nc3cnc4ccc(Cl)cc4c32)CCO1 (stereo not drawn) [Example 10, [cis-4-(8-Chloro-2-cyclobutyl-1H-imidazo[4,5-c]quinolin-1-yl)tetrahydro-2H-pyran-2-yl]acetonitrile] |  | 5.75
6 | Cc1nn2cc(Cc3nc4cnc5ccc(F)cc5c4n3C3CN(C)CC3(F)F)nc2s1 (centres unmarked) [Example 85, 1-(4,4-difluoro-1-methylpyrrolidin-3-yl)-8-fluoro-2-[(2-methylimidazo[2,1-b][1,3,4]thiadiazol-6-yl)methyl]-1H-imidazo[4,5-c]quinoline] |  | 8.58
7 | Cc1nc(Cc2nc3cnc4ccc(C#N)cc4c3n2C2CN(C)CC2(F)F)no1 (stereo not drawn) [enantiomer of Example 32, 1-(4,4-difluoro-1-methylpyrrolidin-3-yl)-2-[(5-methyl-1,2,4-oxadiazol-3-yl)methyl]-1H-imidazo[4,5-c]quinoline-8-carbonitrile] | 6.33 | 
8 | CN1CC(n2c(Cn3cc(C4CC4)nn3)nc3cnc4ccc(Cl)cc4c32)C(F)(F)C1 (stereo not drawn) [enantiomer of Example 47, 8-chloro-2-[(4-cyclopropyl-1H-1,2,3-triazol-1-yl)methyl]-1-(4,4-difluoro-1-methylpyrrolidin-3-yl)-1H-imidazo[4,5-c]quinoline] | 7.01 | 
9 | Cc1cn(Cc2nc3cnc4ccc(Cl)cc4c3n2C2CN(C)CC2(F)F)nn1 (stereo not drawn) [enantiomer of Example 48, 8-chloro-1-(4,4-difluoro-1-methylpyrrolidin-3-yl)-2-[(4-methyl-1H-1,2,3-triazol-1-yl)methyl]-1H-imidazo[4,5-c]quinoline] | 6.84 | 
10 | Cc1cnc(Cc2nc3cnc4ccc(Cl)cc4c3n2C2CN(C)CC2(F)F)cn1 (stereo not drawn) [enantiomer of Example 50, 8-chloro-1-(4,4-difluoro-1-methylpyrrolidin-3-yl)-2-[(5-methylpyrazin-2-yl)methyl]-1H-imidazo[4,5-c]quinoline] | 6.74 | 
11 | COCc1cn(Cc2nc3cnc4ccc(F)cc4c3n2C2CN(C)CC2(F)F)nn1 (stereo not drawn) [enantiomer of Example 53, 1-(4,4-difluoro-1-methylpyrrolidin-3-yl)-8-fluoro-2-{[4-(methoxymethyl)-1H-1,2,3-triazol-1-yl]methyl}-1H-imidazo[4,5-c]quinoline] | 6.64 | 
12 | CN1CC(n2c(Cn3cnnn3)nc3cnc4ccc(Cl)cc4c32)C(F)(F)C1 (stereo not drawn) [enantiomer of Example 86, 8-chloro-1-(4,4-difluoro-1-methylpyrrolidin-3-yl)-2-(1H-tetrazol-1-ylmethyl)-1H-imidazo[4,5-c]quinoline] | 6.57 | 
13 | Cc1nc(Cc2nc3cnc4ccc(Cl)cc4c3n2C2CN(C)CC2(F)F)no1 (stereo not drawn) [enantiomer of Example 88, 8-chloro-1-(4,4-difluoro-1-methylpyrrolidin-3-yl)-2-[(5-methyl-1,2,4-oxadiazol-3-yl)methyl]-1H-imidazo[4,5-c]quinoline] | 6.58 | 

The remaining lines, values ahead:

Row | pIC50 (1 mM ATP) | pIC50 (wild type LRRK2) | SMILES
14 | 8.12 |  | Fc1ccc2ncc3nc(Cc4csnn4)n([C@H]4CC[C@@H](F)C4)c3c2c1 (relative stereo) [enantiomer of Example 79, 8-fluoro-1-[cis-3-fluorocyclopentyl]-2-(1,2,3-thiadiazol-4-ylmethyl)-1H-imidazo[4,5-c]quinoline]
15 | 7.99 | 7.99 | FC1(F)COCCC1n1c(Cn2cncn2)nc2cnc3ccc(Cl)cc3c21 (centres unmarked) [Example 54, 8-chloro-1-(3,3-difluorotetrahydro-2H-pyran-4-yl)-2-(1H-1,2,4-triazol-1-ylmethyl)-1H-imidazo[4,5-c]quinoline]
16 | 7.43 |  | CC(C#N)Cc1nc2cnc3ccc(Cl)cc3c2n1[C@@H]1CCO[C@H](C)C1 (stereo partly drawn) [diastereomer of Example 78, 3-{8-chloro-1-[(2R,4R)-2-methyltetrahydro-2H-pyran-4-yl]-1H-imidazo[4,5-c]quinolin-2-yl}-2-methylpropanenitrile]
17 | 7.34 |  | Cc1nnn(Cc2nc3cnc4ccc(Cl)cc4c3n2C2CN(C)CC2(F)F)n1 (stereo not drawn) [enantiomer of Example 49, 8-chloro-1-(4,4-difluoro-1-methylpyrrolidin-3-yl)-2-[(5-methyl-2H-tetrazol-2-yl)methyl]-1H-imidazo[4,5-c]quinoline]
18 | 7.82 |  | COCc1cn(Cc2nc3cnc4ccc(Cl)cc4c3n2C2CCOCC2(F)F)nn1 (stereo not drawn) [enantiomer of Example 55, 8-chloro-1-(3,3-difluorotetrahydro-2H-pyran-4-yl)-2-{[4-(methoxymethyl)-1H-1,2,3-triazol-1-yl]methyl}-1H-imidazo[4,5-c]quinoline]
19 | 7.25 |  | Cc1nn2cc(Cc3nc4cnc5ccc(F)cc5c4n3C3CN(C)CC3(F)F)nc2s1 (stereo not drawn) [enantiomer of Example 85, 1-(4,4-difluoro-1-methylpyrrolidin-3-yl)-8-fluoro-2-[(2-methylimidazo[2,1-b][1,3,4]thiadiazol-6-yl)methyl]-1H-imidazo[4,5-c]quinoline]
20 | 7.42 |  | Cc1cnn(Cc2nc3cnc4ccc(Cl)cc4c3n2C2CN(C)CC2(F)F)n1 (stereo not drawn) [enantiomer of Example 87, 8-chloro-1-(4,4-difluoro-1-methylpyrrolidin-3-yl)-2-[(4-methyl-2H-1,2,3-triazol-2-yl)methyl]-1H-imidazo[4,5-c]quinoline]
21 | 7.47 |  | Cc1nnc(Cc2nc3cnc4ccc(Cl)cc4c3n2C2CCOCC2(F)F)s1 (stereo not drawn) [enantiomer of Example 92, 8-chloro-1-(3,3-difluorotetrahydro-2H-pyran-4-yl)-2-[(5-methyl-1,3,4-thiadiazol-2-yl)methyl]-1H-imidazo[4,5-c]quinoline]
22 | 8.03 |  | FC1(F)COCCC1n1c(Cn2cc(C3CC3)nn2)nc2cnc3ccc(Cl)cc3c21 (stereo not drawn) [enantiomer of Example 94, 8-chloro-2-[(4-cyclopropyl-1H-1,2,3-triazol-1-yl)methyl]-1-(3,3-difluorotetrahydro-2H-pyran-4-yl)-1H-imidazo[4,5-c]quinoline]

— patent publication US11312713B2, “Imidazo[4,5-C]quinoline derivatives as LRRK2 inhibitors” (Pfizer Inc., priority 2017, dated 2022)
